Data: patent publication US20220213099A1, “PRODRUG COMPOUNDS” (BRISTOL-MYERS SQUIBB COMPANY, priority 2019, published 2022)
Counter-ions that a name gives are not always drawn. Like-named read-outs stand apart in the source and are kept apart here.

What was measured:
[1] = Solubility evaluation in aqueous buffer; type: physicochemical; conditions: aqueous buffer, 25 °C, thermodynamic from solid, about 24 hours equilibration
Method: The solid powder of an individual prodrug was equilibrated in aqueous buffers of pH 1, 4 and 6.5 at 25° C. for about 24 hours. After equilibration, the excess solid was separated by filtration using 0.45 μm membrane filter and the filtrate was collected in suitable glass vial. The filtrate was diluted appropriately using respective buffers/diluent and analyzed by a reversed phase LC method with UV detection.

[2] = Stability evaluation in aqueous buffer; type: physicochemical; conditions: aqueous buffer, 37° C., about 50 μg/mL, about 15% v/v acetonitrile
Method: The stability study of an individual prodrug was conducted with about 50 μg/mL solutions in aqueous buffers of pH 1 (0.1 M HCl), 4 (acetate buffer) and 6.5 (phosphate buffer) at 37° C. for 24 hours. About 15% v/v acetonitrile was used in these pH buffers as a co-solvent to obtain clear solutions of prodrugs. The sample analysis was carried out using a generic reversed phase liquid chromatographic (LC) method with UV detection. The area percent (AP) loss of the prodrug peak was quantified as a function of time. The appearance of parent peak was identified from the chromatographic retention time. The half-life (t1/2, h) of the prodrug was calculated by using a pseudo-first order equation from a AP loss vs time plot.

rat rIALP = assay: Recombinant intestinal alkaline phosphatase (rIALP) assay, rat; type: in vitro ADME; conditions: 100 mM Tris-HCl buffer pH 7.4, 37° C., 120 minutes incubation, read-out: t1/2 in rat rIALP
Method: (§1) Examples 8 and 9 were evaluated in this assay. To assess the potential for generation of parent drug from the phosphate prodrugs, 100 μL of rIALP was dissolved in 100 mM Tris-HCl buffer (pH 7.4) and it was added to 100 μL of freshly prepared prodrug solution (10 mM) prepared in the same buffer. Incubations were performed in triplicate using 96-well plates (Waters, Milford, Mass.) at 37° C. in a shaking water bath (Julabo, Allentown, Pa.). The prodrug and enzyme solution were pre-warmed at 37° C. before the reaction was initiated by addition of substrate. The incubation was performed for 120 minutes with […] taken at 0, 5, 10, 15, 30, 60, 90, and 120 minutes. The assays were terminated at designated time points by the addition of 200 μL of ice-cold acetonitrile containing internal standard followed by centrifugation at 4000 g for 4 minutes. The supernatant was transferred to a new 96-well plate for analysis by ultra-performance liquid chromatography combined with tandem mass spectrometry (UPLC-MS/MS). The t1/2 value for each prodrug/protein combination was determined from the natural logarithm of percent remaining versus time plots.

human rIALP = biological target: T1, human rIALP (Homo sapiens, UniProt P09923); assay: Recombinant intestinal alkaline phosphatase (rIALP) assay, human; type: in vitro ADME; conditions: 100 mM Tris-HCl buffer pH 7.4, 37° C., 120 minutes incubation, read-out: t1/2 in human rIALP
T1 sequence (P09923 20-503 limits assumed): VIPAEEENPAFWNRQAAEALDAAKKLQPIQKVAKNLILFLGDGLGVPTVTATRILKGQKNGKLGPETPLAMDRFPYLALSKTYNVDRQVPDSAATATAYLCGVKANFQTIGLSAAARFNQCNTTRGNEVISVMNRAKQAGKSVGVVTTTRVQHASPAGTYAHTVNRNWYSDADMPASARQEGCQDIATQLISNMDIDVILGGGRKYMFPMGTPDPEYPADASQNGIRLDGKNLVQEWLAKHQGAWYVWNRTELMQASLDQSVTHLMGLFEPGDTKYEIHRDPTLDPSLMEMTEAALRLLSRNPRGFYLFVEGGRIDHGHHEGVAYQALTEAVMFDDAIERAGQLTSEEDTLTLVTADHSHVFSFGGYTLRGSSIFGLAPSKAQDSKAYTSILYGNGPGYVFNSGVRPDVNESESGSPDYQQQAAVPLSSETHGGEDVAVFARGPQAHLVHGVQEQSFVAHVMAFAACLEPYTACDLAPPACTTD
Method: as §1

[3] = pH 1, simulated gastric fluid, aqueous buffer pH 1, 25° C., read-out: Solubility (mg/mL) at 25° C. pH 1
[4] = pH 4, aqueous buffer, aqueous buffer pH 4, 25° C., read-out: Solubility (mg/mL) at 25° C. pH 4
[5] = pH 6.5, aqueous buffer, aqueous buffer pH 6.5, 25° C., read-out: Solubility (mg/mL) at 25° C. pH 6.5
[6] = pH 1, pH 1 (0.1 M HCl), read-out: Stability (t1/2, h) at 37° C. pH 1 (converted)
[7] = pH 4, pH 4 (acetate buffer), read-out: Stability (t1/2, h) at 37° C. pH 4 (converted)
[8] = pH 6.5, pH 6.5 (phosphate buffer), read-out: Stability (t1/2, h) at 37° C. pH 6.5 (converted)

solubility [1, 3] [mg/mL]	solubility [1, 4] [mg/mL]	solubility [1, 5] [mg/mL]	half-life [2, 6] [h]	half-life [2, 7] [h]	half-life [2, 8] [h]	half-life at 5 mM (rat rIALP) [days]	half-life at 5 mM (human rIALP) [days]	SMILES
> 0.86	0.03	0.86	> 500	> 500	> 500	< 0.00347	< 0.00694	Cc1c(-c2[nH]c3ccc(C4CCN(CC(N)=O)CC4)cc3c2C(C)C)cn2nc[n+](COP(=O)(O)O)c2c1C (single isomer, unassigned) [Example 8, 6-(5-(1-(2-Amino-2-oxoethyl)piperidin-4-yl)-3-isopropyl-1H-indol-2-yl)-7,8-dimethyl-1-((phosphonooxy)methyl)-[1,2,4]triazolo[1,5-a]pyridin-1-ium trifluoroacetate]
> 1.14	0.85	1.34	> 500	> 500	> 500	< 0.00347	< 0.00347	Cc1c(-c2[nH]c3ccc(C4CC[N+](COP(=O)(O)O)(CC(N)=O)CC4)cc3c2C(C)C)cn2ncnc2c1C (single isomer, unassigned) [Example 9, 1-(2-Amino-2-oxoethyl)-4-(2-(7,8-dimethyl-[1,2,4]triazolo[1,5-a]pyridin-6-yl)-3-isopropyl-1H-indol-5-yl)-1-((phosphonooxy)methyl)piperidin-1-ium trifluoroacetate]
